The text below walks through data of paper PMC13385394, “Cryo-EM Structure of the TRPC1/5 Heteromer Enables Design of Antidepressant and Anxiolytic Drug with Reduced Side Effects” (Nature Communications, 2026).

The subject of series [1] is diet-induced obesity (DIO) mice. Put plainly: Diet-induced obesity (DIO) model, body weight and food intake. The settings on record: 11 days once daily, HC-070 and JD03-02 10 mg/kg i.g., Semaglutide 0.123 mg/kg s.c. The class given is in vivo, mouse. The protocol:
A maximum of five mice were housed per cage during the acclimatization period, and three mice per cage during the experimental period. […] The day of administration was defined as day 1 (D1) of the experiment, with a single dose/day administered for 11 consecutive days. Daily observations were made on the animals’ general condition. Body weight was measured on days 1, 3, 5, 7, 9, and 11 post-administrations. Food intake was measured on days 1, 3, 5, 7, and 9 post-administrations by calculating the difference between the amount of food provided and the amount remaining in the cage, divided by the number of animals in the cage to determine the average food intake per mouse. The cumulative food intake during the experiment was calculated by summing the food intake measurements taken on different days.

Series [2] concerns the target T1, TRPC4 homomer (Homo sapiens, UniProt Q9UBN4).
T1 construct: expressed in transfected cells
T1 sequence (Q9UBN4 1-977): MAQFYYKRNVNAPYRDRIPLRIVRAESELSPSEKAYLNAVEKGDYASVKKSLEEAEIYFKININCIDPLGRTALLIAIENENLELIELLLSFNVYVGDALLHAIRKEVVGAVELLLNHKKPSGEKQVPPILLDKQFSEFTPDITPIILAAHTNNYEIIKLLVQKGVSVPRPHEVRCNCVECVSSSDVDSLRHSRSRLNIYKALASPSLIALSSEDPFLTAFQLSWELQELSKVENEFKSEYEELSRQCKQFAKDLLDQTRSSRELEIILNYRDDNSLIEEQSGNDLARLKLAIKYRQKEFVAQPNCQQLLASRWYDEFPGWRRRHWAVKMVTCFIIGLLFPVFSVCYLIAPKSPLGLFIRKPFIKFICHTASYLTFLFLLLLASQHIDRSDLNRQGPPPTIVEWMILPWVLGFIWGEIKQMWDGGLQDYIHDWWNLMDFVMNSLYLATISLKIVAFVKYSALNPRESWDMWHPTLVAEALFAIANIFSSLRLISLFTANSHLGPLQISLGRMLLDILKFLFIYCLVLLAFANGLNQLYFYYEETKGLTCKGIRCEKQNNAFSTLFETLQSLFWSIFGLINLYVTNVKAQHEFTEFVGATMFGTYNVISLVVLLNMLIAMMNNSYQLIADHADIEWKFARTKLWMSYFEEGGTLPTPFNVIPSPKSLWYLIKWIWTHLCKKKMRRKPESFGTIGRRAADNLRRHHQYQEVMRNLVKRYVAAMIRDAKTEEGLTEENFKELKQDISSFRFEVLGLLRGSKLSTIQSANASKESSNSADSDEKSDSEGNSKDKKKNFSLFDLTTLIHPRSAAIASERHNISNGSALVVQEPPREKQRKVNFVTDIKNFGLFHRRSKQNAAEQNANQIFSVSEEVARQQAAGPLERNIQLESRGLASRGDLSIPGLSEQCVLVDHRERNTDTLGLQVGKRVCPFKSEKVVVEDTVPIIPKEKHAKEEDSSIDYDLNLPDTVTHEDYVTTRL
Put plainly: Whole-cell patch-clamp, inhibition of TRPC4 homomer. The series is classed as cell-based. The note with it: read-out: IC50, TRPC4 homomers. (Patch clamp records ionic current or voltage across a cell membrane.)

Series [3] deals with mCPP-induced anxiety. Put plainly: Marble-burying test (MBT), mCPP-induced anxiety model. The note with it: mCPP mice; single dose.
Procedure: Seventy male 7–8-week-old C57BL/6 J mice from Jinan Pengyue Laboratory Animal Breeding Co., Ltd. (Jinan, China) were randomly and equally divided into seven groups for the experiment. After a 7-day acclimatization period, interventions were carried out for the indicated days. The Elevated Plus Maze (EPM) test was conducted on day 8, the Marble-Burying (MB) test on day 11, and the Open Field (OF) test on day 14. Mice were brought to the experimental site 2 h before the start of the experiment for acclimatization. […] Anxiety models were induced 30 min before the experiment using the following protocols: control group (NS, 10 mL/kg, i.p.), other groups (mCPP, 2 mg/kg, i.p.)[56].
Prior to the test, the animals were acclimated to the testing environment for 60 min. The test lasted for 30 min, and after each round, the bedding was replaced and the cage was disinfected. The number of marbles buried was recorded, with burying more than 50% of the marbles considered as the criteria for burying.
Series [4] addresses T2, TRPC6 homomer (Homo sapiens, UniProt Q9Y210).
T2 construct: expressed in transfected cells
T2 sequence (Q9Y210 1-931): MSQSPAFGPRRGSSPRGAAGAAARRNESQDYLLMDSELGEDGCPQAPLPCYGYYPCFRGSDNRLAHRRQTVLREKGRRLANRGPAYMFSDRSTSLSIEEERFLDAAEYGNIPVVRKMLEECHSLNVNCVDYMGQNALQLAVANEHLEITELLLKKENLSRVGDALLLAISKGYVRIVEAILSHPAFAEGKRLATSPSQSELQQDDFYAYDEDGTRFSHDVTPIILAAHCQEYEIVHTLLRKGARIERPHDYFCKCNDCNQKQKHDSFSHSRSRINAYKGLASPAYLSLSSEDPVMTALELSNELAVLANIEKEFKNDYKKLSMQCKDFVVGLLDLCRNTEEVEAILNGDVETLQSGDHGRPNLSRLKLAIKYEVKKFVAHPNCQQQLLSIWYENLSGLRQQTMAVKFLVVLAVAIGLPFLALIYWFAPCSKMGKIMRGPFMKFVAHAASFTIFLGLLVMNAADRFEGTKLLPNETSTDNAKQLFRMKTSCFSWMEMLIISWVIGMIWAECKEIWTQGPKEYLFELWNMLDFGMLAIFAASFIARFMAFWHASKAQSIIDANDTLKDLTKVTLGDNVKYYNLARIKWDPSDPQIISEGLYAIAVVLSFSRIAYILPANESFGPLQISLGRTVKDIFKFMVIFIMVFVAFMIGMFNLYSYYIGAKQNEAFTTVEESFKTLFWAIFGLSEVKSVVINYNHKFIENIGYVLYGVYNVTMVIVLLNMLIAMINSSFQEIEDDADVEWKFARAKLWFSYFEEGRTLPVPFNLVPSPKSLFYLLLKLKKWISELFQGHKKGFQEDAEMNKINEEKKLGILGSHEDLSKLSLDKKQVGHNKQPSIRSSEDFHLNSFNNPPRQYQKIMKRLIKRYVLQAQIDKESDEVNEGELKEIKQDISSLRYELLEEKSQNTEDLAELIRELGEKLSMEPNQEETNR
Put plainly: Whole-cell patch-clamp, inhibition of TRPC6 homomer. The series is classed as cell-based. The source says: Error bars represent the standard error of the mean (SEM, n = 6 independent
Error bars represent the standard error of the
110 mean (SEM, n = 5 independent cells).

Series [5] deals with lateral amygdala (LA) neurons. Put plainly: Current-clamp recordings in acute brain slices, CCK-4-induced hyperexcitability. The note with it: ex vivo brain slices. The class given is cell-based, mouse.
Procedure: Coronal brain slices (300 μm) were prepared from male C57BL/6 J mice (8–10 weeks, Jinan Pengyue Laboratory Animal Breeding Co., Ltd., Jinan, China) and initially incubated in ACSF-1.5 at 32 for 30 min, followed by an additional 1 h at room temperature. Subsequently, slices were transferred to oxygenated artificial cerebrospinal fluid (ACSF) containing the test compound and incubated for 2–3 h before being placed in a recording chamber perfused with ACSF-1.5.
Electrophysiological recordings were performed under an Olympus microscope equipped with a 40× long-working-distance objective. Recording electrodes (3-4 MΩ) were pulled from borosilicate glass capillaries. […] After achieving a gigaseal in voltage-clamp mode at −70 mV and establishing whole-cell configuration with series resistance compensation, recordings were switched to current-clamp mode. Step currents ranging from −60 pA to 300 pA (Δ = 20 pA, 500 ms duration, 3 s interval) were applied to evoke action potentials. […] Intracellular solution (mM): 140 K-gluconate, 2 MgCl₂, 8 KCl, 10 HEPES, 2 Na₂-ATP, 0.2 Na₂-GTP; pH adjusted to 7.2 with KOH.
(d) Quantification of action potential
Data are presented as mean ± SEM (n = 11 neurons
Series [6] has as its system mCPP-induced anxiety. Put plainly: Elevated plus maze (EPM) test, mCPP-induced anxiety model. The settings on record: mCPP mice; single dose; JD03-02 3, 10, 30 mg/kg i.g.
In series [7] the test system is healthy C57BL/6J mice.
Procedure: The Open-Field test (OFT) was utilized to evaluate the autonomous behavior, exploratory tendencies, and anxiety levels of experimental animals in a new environment. Each mouse was placed at the center of the container and given a 10-min exploration period. Before the test, the animals were acclimated to the experimental setting for 60 min. […] This cleaning procedure aimed to reduce the risk of contamination and prevent any misleading experimental results due to olfactory stimuli. Anxiety levels and exploratory behavior were assessed by measuring the time spent in the central area, the number of entries into the central area, and the total distance traveled by the mice.

“Also recorded” adds a separate entry of the source.

On to `CN(C)CCCCn1c(=O)c2c(nc(Oc3cccc(Cl)c3)n2Cc2ccc(Cl)cc2)n(C)c1=O` [H08], for which, in series [1], the body weight entry is recorded as “no significant effect; also recorded: did not affect body weight or food intake” and the food intake entry is recorded as “no significant effect; also recorded: did not affect body weight or food intake”. Further, the IC50 in series [2] is 2380 nM. Besides, the “MBT number of marbles buried” value in series [3] is “reducing the number of marbles buried”. This molecule came in with an IC50 in series [4] of over 10000 nM. In series [4] (10 μM), the inhibition at 10 µM lay within 30 to 40% and the “inhibition of TRPC6” value is on record as “no more than 40%”. For the same molecule, in series [5], the “effect on CCK-4-induced hyperexcitability of lateral amygdala neurons (in words)” value is reported as “selectively suppresses CCK-4-induced hyperexcitability”. For the same molecule, the “EPM open arm entries and time in open arms” value in series [6] is “increasing numbers of open arm entries and time spent in open arms”. The “OFT total distance traveled” value in series [7] is given as “no significant effect”.

For orientation: IC50 means the midpoint of a concentration-inhibition curve. Usually inhibition stands for the drop in the measured response relative to a control, in per cent. A lower inhibition goes with little suppression.
